Converted amounts (≈) assume the structure as drawn. “And” between values parts separate entries of the source, which are not always exact repeats. Equal values may be shown once. Read-outs that look alike come from different tables or passages of the source.
Columns and labels:
Strep. faecilis HH34358 = format: cell-based
Providencia SK & F 276 = format: cell-based; settings: Providencia
[1] = tested on: Staph. aureus SK & F 2593; format: cell-based; settings: Staphylococcus aureus
[2] = tested on: Staph. aureus SK & F 2666; format: cell-based; settings: Staphylococcus aureus
[3] = tested on: Staph. aureus SK & F 2680; format: cell-based; settings: Staphylococcus aureus
[4] = tested on: Staph. aureus SK & F 2613; format: cell-based; settings: Staphylococcus aureus
[5] = tested on: Staph. aureus SK & F 2590; format: cell-based; settings: Staphylococcus aureus
[6] = tested on: Staph. aureus SK & F 2591; format: cell-based; settings: Staphylococcus aureus
B. fragilis SK & F 3060 = format: cell-based, Bacteroides fragilis; settings: Bacteroides fragilis
[7] = tested on: B. thetaiotamicron SK & F 3089; format: cell-based
[8] = tested on: Staph. epidermidis SK & F 2265; format: cell-based; settings: Staphylococcus epidermidis
[9] = tested on: Strep. faecalis SK & F 657; format: cell-based; settings: Enterococcus faecalis
Swine in vitro model = experiment: swine in vitro model (growth promotant activity)
rumen in vitro model = rumen in vitro model (growth promotant activity); set-up: species or system steer
Method: The protocol for the rumen in vitro model is analogous to the protocol for the swine in vitro model with the following modifications:
(1) A 400 kg steer is surgically prepared with a rumen cannula.
(2) The animal is fed one time a day with the following ration:
(3) Manipulation of VFA production is described as the production ratio of propionate as a percentage of total VFA produced.
(4) Sampling of the material, via the cannula, is at 120 minutes post feeding.

K. aridum = experiment: susceptibility of K. aridum to antibiotics, disk diffusion method; format: cell-based, Kibdelosporangium aridum; settings: disk 30 μg
Method: Susceptibility of K. aridum to antibiotics was examined by placing BBL susceptibility disks on nutrient agar plates seeded with K. aridum as an overlay. Diameters of the zones of inhibition were measured after incubation for one week at 28° C.
Chlortetracycline ([…]) produced 18 mm zones of inhibition; tetracycline (5 μg) 11-12 mm zones; rifampin (5 μg) 11-15 mm zones; novobiocin (5 μg) 27-28 mm zones. All zones of inhibition contained at least a few resistant colonies.

Staph. aureus HH 127 = experiment: animal or person; settings: Staphylococcus aureus, HH127, in Mus musculus
[10] = tested on: Salmonella gallinarum BC595; experiment: microbe, parasite or virus in culture; settings: Salmonella enterica
[11] = tested on: Clostridium perfringens MCP-1; experiment: microbe, parasite or virus in culture; settings: MCP1

CN[C@H](CC(C)C)C(=O)N[C@H]1C(=O)N[C@@H](CC(N)=O)C(=O)N[C@H]2C(=O)N[C@H]3C(=O)N[C@H](C(=O)N[C@H](C(=O)O)c4cc(O)cc(O)c4-c4cc3ccc4O)[C@H](O)c3ccc(c(Cl)c3)Oc3cc2cc(c3O[C@@H]2O[C@H](CO)[C@@H](O)[C@H](O)[C@H]2O[C@H]2C[C@](C)(N)[C@H](O)[C@H](C)O2)Oc2ccc(cc2Cl)[C@H]1O [Vancomycin, reference compound]
MIC (Strep. faecilis HH34358): 3.1 µg/mL (≈ 2.14 µM) | MIC (Strep. faecilis HH34358; Enterococcus faecalis, HH34358): 6.3 µg/mL (≈ 4.35 µM) | MIC (Providencia SK & F 276): > 100 µg/mL | MIC [1]: 1.6 µg/mL (≈ 1.1 µM) | MIC [2]: 1.6 µg/mL (≈ 1.1 µM) | MIC [3]: 1.6 µg/mL (≈ 1.1 µM) | MIC [4]: 1.6 µg/mL (≈ 1.1 µM) | MIC [5]: 1.6 µg/mL (≈ 1.1 µM) | MIC [6]: 1.6 µg/mL (≈ 1.1 µM) | MIC (B. fragilis SK & F 3060): 32 µg/mL (≈ 22.1 µM) | MIC [7]: 32 µg/mL (≈ 22.1 µM) | MIC [8]: 6.3 µg/mL (≈ 4.35 µM) | MIC [9]: 3.1 µg/mL (≈ 2.14 µM) | GLU (glucose) (Swine in vitro model): 190 % Control and 189 % Control | LAC (L-lactic acid) (Swine in vitro model): 64 % Control and 59 % Control | LYS (lysine) (Swine in vitro model): 48 % Control and 42 % Control and 83 % Control | Propionate % (rumen in vitro model): 127 % Control and 130 % Control and 105 % Control | VFA (total of volatile fatty acids) (rumen in vitro model): 107 % Control and 97 % Control | susceptibility of K. aridum (K. aridum): resistant | ED50 (Staph. aureus HH 127): 1.76 mg/kg | MIC ([10]; Table A): 25 µg/mL (≈ 17.3 µM) | MIC ([10]; Table E): > 100 µg/mL | MIC [11]: 0.5 µg/mL (≈ 0.345 µM)

Reference: patent US4672036A, “Pure cultures of Kibdelsporangium aridum Shearer gen. nov., sp. nov. ATCC 39323 and mutants thereof” (SmithKline Beckman Corporation, priority 1985, dated 1987)
